This is an account of results in ChEMBL document CHEMBL1201862, “PubChem BioAssay data set” (2004).

Activity calls are given as the source filed them. Bounds are passed on as bounds.

Assay [1] concerns BJ. Kind of assay: cells. Type of assay: functional, cell-based. The conditions noted are these: Homo sapiens.
The test system of assay [2] is BJ. Kind of assay: cytotoxicity toward BJ-TERT-LT-ST fibroblasts, dose response, cell-based, RAS-independent, luminescence (AID 1935).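 Further: BJ fibroblasts immortalized with TERT plus LT and ST oncogenes.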 The conditions noted are these: Homo sapiens. Type of assay: functional.
Assay [3] is described as follows: THP-1 cell cytotoxicity, dose response, cytotoxicity control for non-replicating M. tuberculosis project (AID 489025). Type of assay: functional.
Assay [4] deals with BJ. Nature of the assay: cytotoxicity toward Ras-transformed BJeLR fibroblasts, dose response, cell-based, alamar blue fluorescence, cherrypicked samples (AID 2631).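 Further: confirmatory dose-response assay in RAS-dependent BJ fibroblasts engineered with TERT, LT and ST, with cytotoxicity read by fluorescence.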 The conditions noted are these: Homo sapiens. Type of assay: functional. On the technique in general: The colour change of resazurin is a common sign of viable cells or microbes.
In assay [5] the target is DNA (cytosine-5)-methyltransferase 1 (Homo sapiens, UniProt P26358). Nature of the assay: DNMT1 methyltransferase inhibitors, confirmation, biochemical, fluorescent molecular beacon (AID 602386). Type of assay: functional.
Chain of DNA (cytosine-5)-methyltransferase 1 (P26358 whole entry): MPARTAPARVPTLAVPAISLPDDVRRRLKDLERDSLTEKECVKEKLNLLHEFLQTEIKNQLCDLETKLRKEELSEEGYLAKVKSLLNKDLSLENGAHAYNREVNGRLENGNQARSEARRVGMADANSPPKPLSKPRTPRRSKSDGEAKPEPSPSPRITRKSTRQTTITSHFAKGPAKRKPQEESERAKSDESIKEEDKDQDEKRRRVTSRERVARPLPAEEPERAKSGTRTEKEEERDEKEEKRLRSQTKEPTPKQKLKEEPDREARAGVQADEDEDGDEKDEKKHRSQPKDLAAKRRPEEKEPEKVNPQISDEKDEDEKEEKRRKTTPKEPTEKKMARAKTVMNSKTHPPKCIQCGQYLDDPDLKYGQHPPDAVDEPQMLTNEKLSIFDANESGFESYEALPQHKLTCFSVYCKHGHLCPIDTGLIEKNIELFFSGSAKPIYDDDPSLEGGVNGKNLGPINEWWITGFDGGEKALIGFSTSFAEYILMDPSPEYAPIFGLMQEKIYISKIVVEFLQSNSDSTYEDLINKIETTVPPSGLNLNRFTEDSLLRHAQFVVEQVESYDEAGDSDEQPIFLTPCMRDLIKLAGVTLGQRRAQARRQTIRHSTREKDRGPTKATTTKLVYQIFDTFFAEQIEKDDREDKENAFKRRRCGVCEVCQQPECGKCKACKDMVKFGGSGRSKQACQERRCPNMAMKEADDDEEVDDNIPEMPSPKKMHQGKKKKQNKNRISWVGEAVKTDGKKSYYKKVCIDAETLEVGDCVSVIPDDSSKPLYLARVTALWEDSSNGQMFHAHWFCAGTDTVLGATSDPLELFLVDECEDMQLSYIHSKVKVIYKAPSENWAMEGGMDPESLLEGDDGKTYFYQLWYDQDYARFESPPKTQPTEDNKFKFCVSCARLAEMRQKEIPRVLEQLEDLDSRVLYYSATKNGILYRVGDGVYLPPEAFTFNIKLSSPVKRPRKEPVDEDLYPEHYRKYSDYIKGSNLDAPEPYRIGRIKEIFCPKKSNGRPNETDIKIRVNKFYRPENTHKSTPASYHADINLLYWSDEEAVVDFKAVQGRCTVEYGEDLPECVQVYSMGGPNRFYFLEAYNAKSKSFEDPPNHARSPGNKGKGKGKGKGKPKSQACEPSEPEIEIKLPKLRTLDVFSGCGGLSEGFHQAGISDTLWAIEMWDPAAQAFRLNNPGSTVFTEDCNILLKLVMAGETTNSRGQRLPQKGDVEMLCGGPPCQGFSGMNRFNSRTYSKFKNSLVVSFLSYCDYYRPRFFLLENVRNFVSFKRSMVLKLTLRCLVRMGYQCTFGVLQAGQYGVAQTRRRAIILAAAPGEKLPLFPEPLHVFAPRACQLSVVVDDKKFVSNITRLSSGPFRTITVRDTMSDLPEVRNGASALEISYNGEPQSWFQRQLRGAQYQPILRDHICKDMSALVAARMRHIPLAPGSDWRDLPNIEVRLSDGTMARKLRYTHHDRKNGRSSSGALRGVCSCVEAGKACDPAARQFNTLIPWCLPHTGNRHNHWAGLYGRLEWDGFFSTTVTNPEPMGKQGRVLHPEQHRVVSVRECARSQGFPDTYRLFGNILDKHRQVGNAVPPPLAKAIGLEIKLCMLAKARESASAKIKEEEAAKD
The target in assay [6] is T1, Mitochondrial peptide methionine sulfoxide reductase (Bos taurus, UniProt P54149).
T1 sequence (P54149 whole entry): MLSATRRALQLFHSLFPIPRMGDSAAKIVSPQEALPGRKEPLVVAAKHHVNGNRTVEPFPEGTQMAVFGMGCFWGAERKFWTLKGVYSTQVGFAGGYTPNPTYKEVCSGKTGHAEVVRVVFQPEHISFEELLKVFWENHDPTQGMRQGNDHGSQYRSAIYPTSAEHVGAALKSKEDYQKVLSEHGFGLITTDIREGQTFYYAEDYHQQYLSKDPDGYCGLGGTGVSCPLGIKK
Nature of the assay: Absorbance-based biochemical high throughput dose response assay for activators of Methionine sulfoxide reductase A (MsrA). Type of assay: functional.

Another assay concerns the target T2, Caspase-6 (Homo sapiens, UniProt P55212).
T2 sequence (P55212 whole entry): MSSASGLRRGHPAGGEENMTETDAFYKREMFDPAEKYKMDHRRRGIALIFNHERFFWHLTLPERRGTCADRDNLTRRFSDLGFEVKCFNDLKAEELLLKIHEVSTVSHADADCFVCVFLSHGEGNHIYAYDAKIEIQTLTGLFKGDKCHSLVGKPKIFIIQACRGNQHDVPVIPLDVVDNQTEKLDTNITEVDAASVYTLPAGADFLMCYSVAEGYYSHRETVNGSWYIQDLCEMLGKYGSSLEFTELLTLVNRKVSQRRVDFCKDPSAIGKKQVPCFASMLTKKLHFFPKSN
Nature of the assay: human caspase-6 inhibitors, dose response, biochemical, VEID-R110 fluorescence, cherry-pick (AID 720632).

The next assay deals with Caspase-9 (Homo sapiens, UniProt P55211). Kind of assay: caspase-9 enzyme inhibition, dose response, selectivity assay for caspase-6 inhibitor project, biochemical, fluorescence, plate reader, cherry-picked samples (AID 743293).
Chain of Caspase-9 (P55211 1-315 limits assumed): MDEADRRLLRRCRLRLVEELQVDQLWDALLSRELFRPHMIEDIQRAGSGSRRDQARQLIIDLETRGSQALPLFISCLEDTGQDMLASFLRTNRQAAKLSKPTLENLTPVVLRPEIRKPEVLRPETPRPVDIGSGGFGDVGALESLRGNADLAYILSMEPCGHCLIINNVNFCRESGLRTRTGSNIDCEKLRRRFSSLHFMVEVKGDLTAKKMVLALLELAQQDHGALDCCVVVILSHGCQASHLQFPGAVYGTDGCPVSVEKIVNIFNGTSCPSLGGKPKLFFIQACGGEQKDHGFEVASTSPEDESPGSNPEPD
Chain of Caspase-9 (P55211 331-416 limits assumed): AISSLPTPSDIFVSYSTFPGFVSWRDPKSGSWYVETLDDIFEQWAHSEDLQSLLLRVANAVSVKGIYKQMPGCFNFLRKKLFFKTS
Assay [7] in a line: cytotoxicity toward NIH3T3 fibroblasts, dose response, counter-screen, cell-based, ATP luminescence, mouse fibroblasts (AID 2010).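 Further: cells exposed to compound for about 90 hours before reading.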 Type of assay: functional. (In general: Counterscreens check selectivity or assay interference.)
For assay [8], the target named is Photoreceptor-specific nuclear receptor (Homo sapiens, UniProt Q9Y5X4). Type of assay: functional.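 Further: potency for compounds that break the NR2E3 corepressor complex and count as activators.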
Chain of Photoreceptor-specific nuclear receptor (Q9Y5X4 whole entry): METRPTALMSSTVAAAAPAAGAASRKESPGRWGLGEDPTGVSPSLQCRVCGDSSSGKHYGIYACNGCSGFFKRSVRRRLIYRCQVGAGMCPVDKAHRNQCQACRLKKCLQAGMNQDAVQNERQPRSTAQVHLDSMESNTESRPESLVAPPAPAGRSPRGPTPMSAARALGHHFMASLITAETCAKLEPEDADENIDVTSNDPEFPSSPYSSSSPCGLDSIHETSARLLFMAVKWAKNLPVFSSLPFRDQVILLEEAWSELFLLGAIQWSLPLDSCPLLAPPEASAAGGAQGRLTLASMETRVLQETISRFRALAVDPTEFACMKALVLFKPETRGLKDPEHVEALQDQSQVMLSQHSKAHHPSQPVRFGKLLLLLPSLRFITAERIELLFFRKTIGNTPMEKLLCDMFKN
Assay [9] has as its target T3, RNA-binding protein pos-1 (Caenorhabditis elegans, UniProt G5EF15).
T3 sequence (G5EF15 whole entry): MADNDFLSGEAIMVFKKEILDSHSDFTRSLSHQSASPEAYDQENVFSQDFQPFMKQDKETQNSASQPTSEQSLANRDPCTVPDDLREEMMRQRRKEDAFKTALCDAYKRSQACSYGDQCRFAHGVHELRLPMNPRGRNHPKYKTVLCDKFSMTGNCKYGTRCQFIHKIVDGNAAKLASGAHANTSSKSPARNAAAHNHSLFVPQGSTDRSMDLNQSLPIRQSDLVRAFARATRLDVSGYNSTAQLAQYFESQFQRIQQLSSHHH
Kind of assay: inhibitors of POS-1/mex-3 RNA binding, dose response, biochemical, fluorescence polarization (AID 1964).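 Further: purified POS-1 fused to maltose binding protein made in E. coli; potency of compounds blocking POS-1 binding to fluorescent RNA.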 On the technique in general: Fluorescence polarisation rises when a labelled molecule tumbles more slowly, as on binding a larger partner.

Assay [10] addresses Sphingosine 1-phosphate receptor 2 (Homo sapiens, UniProt O95136). Kind of assay: Dose Response Cell Based Assay for Antagonists of the S1P2 Receptor. [Related pubchem assays: 856, 736 ]. Type of assay: functional.
In assay [11] the target is Sphingosine 1-phosphate receptor 1 (Homo sapiens, UniProt P21453). Type of assay: functional.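 Further: Tango beta-arrestin reporter U2OS cells stimulated with S1P near its EC80; inhibitor potency meaning antagonism of receptor activation by the natural agonist.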
Chain of Sphingosine 1-phosphate receptor 1 (P21453 whole entry): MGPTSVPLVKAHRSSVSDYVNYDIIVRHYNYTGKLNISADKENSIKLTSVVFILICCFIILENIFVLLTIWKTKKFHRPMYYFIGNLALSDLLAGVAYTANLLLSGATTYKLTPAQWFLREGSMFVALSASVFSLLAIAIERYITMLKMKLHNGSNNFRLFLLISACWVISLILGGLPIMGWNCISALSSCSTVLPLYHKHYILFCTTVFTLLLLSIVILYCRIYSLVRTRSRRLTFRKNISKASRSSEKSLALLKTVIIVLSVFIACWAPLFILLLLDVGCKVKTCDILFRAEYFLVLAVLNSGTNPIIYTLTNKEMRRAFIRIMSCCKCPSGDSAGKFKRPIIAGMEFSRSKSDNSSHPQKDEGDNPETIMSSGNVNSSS
Assay [12] has as its target T4, Mannose-6-phosphate isomerase (Homo sapiens, UniProt P34949).
T4 sequence (P34949 whole entry): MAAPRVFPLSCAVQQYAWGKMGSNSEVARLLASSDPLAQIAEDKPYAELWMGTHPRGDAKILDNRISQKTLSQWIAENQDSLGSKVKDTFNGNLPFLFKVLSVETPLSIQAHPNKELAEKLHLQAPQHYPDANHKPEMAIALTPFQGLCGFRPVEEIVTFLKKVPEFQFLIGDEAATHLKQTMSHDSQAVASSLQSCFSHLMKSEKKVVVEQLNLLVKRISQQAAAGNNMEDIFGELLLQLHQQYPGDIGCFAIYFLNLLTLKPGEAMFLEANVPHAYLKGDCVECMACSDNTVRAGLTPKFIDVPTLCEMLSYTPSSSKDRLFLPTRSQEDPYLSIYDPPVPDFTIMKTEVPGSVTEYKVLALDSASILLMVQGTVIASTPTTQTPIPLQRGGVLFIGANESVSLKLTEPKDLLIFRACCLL
Nature of the assay: human PMI inhibitors, high substrate, primary screen, biochemical, fluorescence intensity, high mannose 6-phosphate (AID 1220).

For another assay, the target named is T5, Caspase-3 (Homo sapiens, UniProt P42574).
T5 sequence (P42574 whole entry): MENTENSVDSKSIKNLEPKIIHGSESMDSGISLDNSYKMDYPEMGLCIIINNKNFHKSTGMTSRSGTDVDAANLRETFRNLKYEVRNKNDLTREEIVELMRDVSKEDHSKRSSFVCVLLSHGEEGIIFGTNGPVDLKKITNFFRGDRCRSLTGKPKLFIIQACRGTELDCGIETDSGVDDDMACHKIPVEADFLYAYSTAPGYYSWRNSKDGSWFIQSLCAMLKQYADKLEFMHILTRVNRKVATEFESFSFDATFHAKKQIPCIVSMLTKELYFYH
Kind of assay: SAR Analysis of small molecule inhibitors of Sentrin-specific proteases (SENPs) using a Caspase-3 Selectivity assay. [Related pubchem assays (depositor defined):AID2540, AID2599, AID434973, AID489001]. Type of assay: functional.

The nature of assay [13]: C. albicans growth with fluconazole, confirmation, fluorescence, retest (AID 2467). Type of assay: functional, cell-based.
The next assay concerns Jurkat. Kind of assay: SAR Analysis of small molecule inhibitors of T-cell specific antigen receptor-induced NF-kB activation in a Jurkat cell line using a luminescence assay - Set 2. [Related pubchem assays (depositor defined):AID435003, AID435012, AID465]. Type of assay: functional, cell-based. The conditions noted are these: Homo sapiens.
A short description of assay [14]: Shn3 3'UTR reporter inhibitors, dose response, cell-based, Clone20 osteoblasts, firefly luciferase, cherry-picked (AID 624132).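 Further: firefly luciferase luminescence from reporter carrying the Shn3 3'UTR in osteoblasts.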 Type of assay: functional.
A short description of assay [15]: HepG2 cell cytotoxicity, dose response, cytotoxicity control for Shn3 inhibitor project, CellTiter-Glo, cherry-picked (AID 624134). Type of assay: functional, cell-based.
Assay [16] can be described thus: control 3'UTR Renilla luciferase suppression, dose response, counter-screen for Shn3 inhibitor project, cell-based, Clone20-Shn3RL, cherry-picked (AID 624133). Type of assay: functional.

Chain of Sphingosine 1-phosphate receptor 2 (O95136 whole entry): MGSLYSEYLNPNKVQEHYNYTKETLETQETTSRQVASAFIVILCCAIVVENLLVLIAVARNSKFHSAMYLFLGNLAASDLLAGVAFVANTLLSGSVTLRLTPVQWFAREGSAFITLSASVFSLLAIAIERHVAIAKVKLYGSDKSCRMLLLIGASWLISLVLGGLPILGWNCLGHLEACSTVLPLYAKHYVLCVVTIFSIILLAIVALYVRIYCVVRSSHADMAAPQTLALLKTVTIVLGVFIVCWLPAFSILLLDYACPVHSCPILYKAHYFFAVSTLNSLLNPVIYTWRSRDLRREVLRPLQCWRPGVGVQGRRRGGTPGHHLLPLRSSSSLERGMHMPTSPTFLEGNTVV

Broadly, the EC50 is the midpoint of the concentration-response curve. A word on the CC50: it is the concentration at which the toxic effect on the cells reaches its halfway point. With `O=C(Cc1ccc([N+](=O)[O-])cc1)N/N=C/c1ccc([N+](=O)[O-])o1`, the figures for the EC50 in the assay on BJ [1], in the assay with BJ [2] and in the assay with BJ [4] were 15.6 µM (active), 18.3 µM (active) and 7.85 µM (active), respectively. For the same molecule, the CC50 in assay [3] was 6.26 µM (active).
A word on the IC50: it is the concentration needed to halve the response being measured. In general, AC50 refers to the midpoint of the concentration-response curve, whichever way the signal moves. `NS(=O)(=O)c1ccc(NC(=O)COC(=O)c2ccc([N+](=O)[O-])s2)cc1`: the IC50 in assay [5] is 25.1 µM (active). The EC50 in [6] is > 104 µM (inactive). Moreover, the AC50 at Caspase-6 was 3.33 µM (active); at Caspase-9, 22.8 µM (active).
As for `SC1=Nc2ccccc2C1`, in assay [7], the EC50 was 15.8 µM (active).
As for `Cn1nc(-c2ccc(Cl)cc2)nc2c(=O)n(C)c(=O)nc1-2`, the results for the IC50 in assay [8], in [10] and in [11] were > 39.8 µM (not active), 0.996 µM (active) and 2.34 µM (active), respectively. Also, the EC50 in assay [9] was 17.6 µM (active).
Take `CCCCNc1cc(NC(C)=O)cc2cc(OC)c(OC)cc12`: the IC50 in assay [12] was > 50 µM (not active); at Caspase-3 it was > 99 µM (inactive).
As to `COc1ccc(C(NC(=O)C(C)C)c2ccc3cccnc3c2O)cc1` (stereo not given), the EC50 in assay [13] is 0.692 µM (active). Moreover, the IC50 in the assay on Jurkat was 2.38 µM (active). For the same molecule, the AC50 in assay [14] is 1.35 µM (active); in [15], 1.27 µM (active); in assay [16], 2.27 µM (active).
